{"source": "patent US6663881B2", "about": "(priority 1993, dated 2003)", "key": {"[1]": {"tested_on": "balloon traumatized swine coronary arteries", "assay": "Dose-response study of balloon traumatized swine coronary arteries (Table 14, morphometry)", "format": "in vivo"}, "[2]": {"tested_on": "balloon traumatized pig femoral arteries", "assay": "Biological stenting of balloon traumatized pig femoral arteries (luminal area morphometry)", "format": "in vivo", "procedure": "Pig femoral arteries were traumatized as described in Example 7, and then treated with cytochalasin B. About 1.5 to about 2 ml of cytochalasin B at 0.1 μg/ml was infused into portions of the artery that had been separated from other portions by ligatures. The artery was then pressurized for 3 minutes and the fluid aspirated. Approximately 8 to about 30 lambda of the solution is retained in the interstitial space surrounding the cells in the tunica media. Ten femoral arteries (two arteries obtained from each of the 5 pigs that were treated according to the single dose protocol described in Example 7) were then evaluated histologically at 4 days or 3 weeks after cytochalasin B adminstration. The maximal luminal area of each artery was measured and calculated from digitized microscopic images by a BQ System IV computerized morphometric analysis system (R & M Biometrics, Inc., Nashville, Tenn.). This experiment was repeated with 5 additional pigs (two arteries per pig; cytochalasin B dose=0.1 μg/ml, applied for 3 minutes at 1 atm pressure; same time points). The data obtained from the two experiments were combined.\nThe luminal area of the traumatized and cytochalasin B-treated segments of the arteries were also compared to the luminal area of the normal, untreated region of the femoral artery proximal to the test area. […]"}, "[3]": {"assay": "7 day intravenous toxicity study in rats (Table 11)", "format": "in vivo", "details": "10 μg/ml IV four times a day for 7 days (800 μg/kg daily)", "procedure": "To determine the toxicity of cytochalasin B, rats (4 male and 4 female) were injected with 10 μg/ml cytochalasin B four times a day for 7 days (Table 11). Data regarding body weight changes, food consumption, food efficiency, hematology parameters, coagulation parameters, serum chemistry parameters, and gross necropsy findings were collected. […] There were no gross or microscopic changes detected in the heart to account for the elevation. Thus, daily administration of cytochalasin B to rats at a dose of 800 μg/kg (for a total injected dose of 5600 μg/kg) may have an effect on heart weight of female (but not male) rats. However, clotted blood was not routinely removed from the heart lumens prior to weighing the heart."}, "[4]": {"tested_on": "Vascular smooth muscle (BO54) cells", "format": "cell-based, baboon"}, "[5]": {"assay": "Biodistribution of cytochalasin B after i.p. injection (HPLC)", "format": "in vivo, mice", "details": "50 mg/kg i.p.", "procedure": "Biodistribution of Cytochalasin B. To determine the biodistribution of cytochalasin B, mice were injected (i.p.) with 50 mg/kg cytochalasin B. Control mice were injected with DMSO/Tween 20/carboxymethyl cellulose (“vehicle”). The mice were sacrificed at 3, 12, 24 and 72 hours after cytochalasin B or vehicle administration. Organs were removed, homogenized, extracted and the amount of cytochalasin B in tissues quantitated by HPLC. About 75% of the cytochalasin B remained in the peritoneal cavity or at the injection site."}, "[6]": {"tested_on": "balloon traumatized rabbit carotid artery", "format": "in vivo"}}, "note": "Like-named read-outs stand apart in the source and are kept apart here.", "data": [{"smiles": "C=C1[C@@H](C)[C@H]2[C@H](Cc3ccccc3)NC(=O)[C@]23OC(=O)/C=C/[C@H](O)CCC[C@@H](C)C/C=C/[C@H]3[C@@H]1O", "note": "[cytochalasin B]", "values": [{"measurement": "coronary luminal area", "setting": "[1]; 0.1, 1.5 or 10.0 μg/ml, three weeks after intervention", "result": "sustained arterial dilation"}, {"measurement": "myocardial or arterial lesions (histology)", "setting": "[1]; in vivo", "result": "did not result in myocardial or arterial lesions"}, {"measurement": "lumen area of test region vs normal control segment of the same artery", "setting": "[2]; 0.1 μg/ml for cytochalasin B", "result": "approximately two times as large"}, {"measurement": "luminal area vs other test agents or controls", "setting": "[2]; 0.1 μg/ml, 4 day and 3 week post-treatment", "result": "larger luminal area"}, {"measurement": "artery lumen areas over three weeks vs diluent control", "setting": "[2]; 0.1 μg/ml, two way analysis of variance", "result": "statistically significant difference (p<0.05)"}, {"measurement": "toxicity to the vascular smooth muscle cells", "setting": "[2]; 10 μg/ml dose, dose response study", "result": "appeared to be toxic"}, {"measurement": "myofilament reformation (electron micrographs)", "setting": "[2]; about 0.1 to about 10.0 μg/ml", "result": "myofilament reformation was retarded"}, {"measurement": "constriction or vascular remodeling", "setting": "[2]; pig, in vivo", "result": "did not undergo the constriction or chronic geometrical (vascular) remodeling"}, {"measurement": "incidence of mural microthrombi", "setting": "[2]; vs untreated balloon traumatized arteries", "result": "decreased"}, {"measurement": "adverse effect", "setting": "[3]", "result": "elevation of the mean relative heart weight in treated female animals"}, {"measurement": "MED, DNA assay", "setting": "[4]; 5 minute exposure", "result": 10, "unit": "µg/mL"}, {"measurement": "DNA synthesis inhibition compared with protein synthesis inhibition", "setting": "[4]; 24 hour assays, 5% FBS, FIGS. 10A-10D", "result": "to a greater extent than they inhibited protein synthesis"}, {"measurement": "MED, DNA synthesis assay", "setting": "[4]; 24 hour exposure", "result": 0.1, "unit": "µg/mL"}, {"measurement": "organ with the highest amount", "setting": "[5]", "result": "liver"}, {"measurement": "intimal proliferation", "setting": "[6]; Group 1, 2 weeks", "result": "minimal intimal and adventital proliferation"}, {"measurement": "intimal proliferation", "setting": "[6]; Group 1, three weeks", "result": "no intimal proliferation"}, {"measurement": "intimal proliferation", "setting": "[6]; Group 1: 20 mg in 1 g bovine collagen gel in collagen mesh wrap, 1 week", "result": "no intimal or adventital proliferation"}, {"measurement": "intimal proliferation", "setting": "[6]; Group 2, 3 weeks", "result": "moderate, irregular intimal proliferation"}, {"measurement": "intimal proliferation", "setting": "[6]; Group 2, two weeks", "result": "complete inhibition of intimal proliferation"}, {"measurement": "intimal proliferation", "setting": "[6]; Group 3, three weeks", "result": "moderate amount of intimal hyperplasia"}, {"measurement": "intimal proliferation", "setting": "[6]; Group 3, two weeks", "result": "mild, irregular intimal proliferation"}, {"measurement": "intimal proliferation", "setting": "[6]; Group 3: 8 mg in 100 mg pluronic gel on collagen mesh wrap, one week", "result": "mild intimal proliferation"}, {"measurement": "intimal proliferation", "setting": "[6]; Group 4, three weeks", "result": "minimal to no intimal proliferation"}, {"measurement": "intimal proliferation", "setting": "[6]; Group 4, two weeks", "result": "minimal intimal proliferation"}, {"measurement": "intimal proliferation", "setting": "[6]; Group 7a, three weeks", "result": "mild irregular intimal proliferation"}, {"measurement": "intimal proliferation", "setting": "[6]; Group 7a: 10% wt/wt, one week", "result": "no intimal proliferation"}, {"measurement": "re-endothelization", "setting": "[6]; Group 8a, animal 1254", "result": "approximately 60%"}, {"measurement": "intimal proliferation", "setting": "[6]; Group 8a, animal 1255", "result": "mild to moderate intimal proliferation"}, {"measurement": "intimal proliferation", "setting": "[6]; Group 8a, animal 1256", "result": "moderate intimal proliferation"}, {"measurement": "intimal proliferation", "setting": "[6]; Group 8a: 10% wrap 2 weeks, removed, 2 weeks later, animal 1254", "result": "none to mild"}, {"measurement": "intimal proliferation", "setting": "[6]; Group 10 (1% wrap, 2 weeks after removal), animal 1304", "result": "moderate initmal proliferation"}, {"measurement": "re-endothelization", "setting": "[6]; Group 10, animal 1304", "result": 100, "unit": "%"}, {"measurement": "intimal proliferation", "setting": "[6]; Group 11 (1% wrap, four weeks after removal), animal 1307", "result": "moderate initmal proliferation"}, {"measurement": "intimal proliferation", "setting": "[6]; Group 11, animal 1308", "result": "moderate intimal proliferation"}, {"measurement": "re-endothelization", "setting": "[6]; Group 11, animal 1308", "result": 100, "unit": "%"}, {"measurement": "intimal proliferation", "setting": "[6]; Group 11, animal 1309", "result": "marked intimal proliferation"}, {"measurement": "qualitative difference between test and control animals", "setting": "[6]; Groups 10 and 11: 1% wt/wt silicone wrap 2 weeks, removed, evaluated 2 or 4 weeks later", "result": "No significant difference"}]}]}
